Source: patent US20240116985A1, “STAPLED PEPTIDES AND METHODS THEREOF” (priority 2020, published 2024)

What was measured:
[1] = biological target: T1, full-length beta-Catenin (Uniprot ID P35222) (Homo sapiens, UniProt P35222); experiment: Fluorescence polarization IC50 (beta-catenin / 5FAM-TCF4 10-53 competition); type: binding; details: fluorescence polarization; read-out: beta-Catenin FP IC50
T1 construct: 10 nM full-length beta-Catenin (Uniprot ID P35222)
T1 sequence (P35222 1-781): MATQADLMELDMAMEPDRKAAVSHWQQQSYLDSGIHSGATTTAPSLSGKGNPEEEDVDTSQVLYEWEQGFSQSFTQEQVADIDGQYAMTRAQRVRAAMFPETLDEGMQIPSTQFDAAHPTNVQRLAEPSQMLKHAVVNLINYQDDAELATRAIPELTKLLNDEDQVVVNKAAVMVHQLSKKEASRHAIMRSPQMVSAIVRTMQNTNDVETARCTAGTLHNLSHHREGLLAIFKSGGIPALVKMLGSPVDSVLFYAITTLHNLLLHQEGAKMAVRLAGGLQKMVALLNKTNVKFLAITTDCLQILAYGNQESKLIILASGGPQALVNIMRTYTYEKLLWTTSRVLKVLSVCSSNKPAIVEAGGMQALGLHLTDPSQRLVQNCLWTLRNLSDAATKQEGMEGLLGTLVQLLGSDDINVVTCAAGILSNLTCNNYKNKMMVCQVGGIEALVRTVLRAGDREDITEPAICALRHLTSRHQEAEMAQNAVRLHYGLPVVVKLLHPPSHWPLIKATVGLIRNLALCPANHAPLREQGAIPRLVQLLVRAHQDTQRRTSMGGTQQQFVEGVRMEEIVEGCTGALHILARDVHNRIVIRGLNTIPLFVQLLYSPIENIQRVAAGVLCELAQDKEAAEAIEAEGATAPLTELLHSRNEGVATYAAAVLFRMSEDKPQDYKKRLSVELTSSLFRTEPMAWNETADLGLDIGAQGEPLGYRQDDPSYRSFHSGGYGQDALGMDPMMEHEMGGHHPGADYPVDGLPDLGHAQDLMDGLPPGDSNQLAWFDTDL

[2] = biological target: T2, beta-catenin/TCF4 engagement (Homo sapiens, UniProt P35222); experiment: Nano-BRET target engagement assay (B-cat-Halo & TCF4-Luc in HEK293 cells); type: cell-based; details: absolute IC50; read-out: NanoBRET Abs IC50
T2 construct: expressed in transfected cells; host or cells: HEK293
T2 sequence (P35222 1-781): T1 sequence (P35222 1-781)

Row | IC50 [1] [nM] | IC50 [2] [nM] | Compound
1 | 60 | > 20000 | CC(=O)N1CCC[C@]12CCCCCCC1(CCCCCCCOC(=O)N3CC[C@@](C(=O)N[C@@H](Cc4ccsc4)C(=O)N[C@@H](Cc4csc5ccccc45)C(=O)N[C@@H](CCC(N)=O)C(N)=O)(C3)NC(=O)[C@H](CC(C)C)NC(=O)[C@H](Cc3ccccc3)NC(=O)[C@H](C)NC(=O)[C@H](C)NC(=O)[C@H](CC(=O)O)NC(=O)[C@H](CC(=O)O)NC1=O)NC(=O)[C@H](CC(C)(C)C)NC(=O)[C@H](CC(=O)O)NC2=O (stereo partly drawn) [I-1822, Ac-PL3-Asp-Npg-B5-Asp-Asp-Ala-Ala-Phe-Leu-PyrS1-3Thi-BztA-Gln-NH2]
2 | 41 | > 20000 | CC(=O)N1CCC[C@]12CCCCCCC1(CCCCCCOC(=O)N3CC[C@@](C(=O)N[C@@H](Cc4ccsc4)C(=O)N[C@@H](Cc4csc5ccccc45)C(=O)N[C@@H](CCC(N)=O)C(N)=O)(C3)NC(=O)[C@H](CC(N)=O)NC(=O)[C@H](Cc3ccccc3)NC(=O)[C@H](C)NC(=O)[C@H](C)NC(=O)[C@H](CC(=O)O)NC(=O)[C@H](CC(=O)O)NC1=O)NC(=O)[C@H](CC(C)(C)C)NC(=O)[C@H](CC(=O)O)NC2=O (stereo partly drawn) [I-1823, Ac-PL3-Asp-Npg-B5-Asp-Asp-Ala-Ala-Phe-Asn-PyrS-3Thi-BztA-Gln-NH2]
3 | 101 | > 20000 | CC(=O)N1CCC[C@]12CCCCCCC1(CCCCCCOC(=O)N3CC[C@@](C(=O)N[C@@H](Cc4ccsc4)C(=O)N[C@@H](Cc4csc5ccccc45)C(=O)N[C@@H](CCC(N)=O)C(N)=O)(C3)NC(=O)[C@H](CC(C)C)NC(=O)[C@H](Cc3ccccc3)NC(=O)[C@H](C)NC(=O)[C@H](C)NC(=O)[C@H](CC(=O)O)NC(=O)[C@H](CC(=O)O)NC1=O)NC(=O)[C@H](CC(C)(C)C)NC(=O)[C@H](CC(=O)O)NC2=O (stereo partly drawn) [I-1824, Ac-PL3-Asp-Npg-B5-Asp-Asp-Ala-Ala-Phe-Leu-PyrS-3Thi-BztA-Gln-NH2]
4 | 264 | > 20000 | CC(=O)N1CCC[C@]12CC=CCCCC1(CCCC=CCOC(=O)N3CC(C(=O)N[C@@H](Cc4ccsc4)C(=O)N[C@@H](Cc4csc5ccccc45)C(=O)N[C@@H](CCC(N)=O)C(N)=O)(C3)NC(=O)[C@H](CC(C)C)NC(=O)[C@H](Cc3ccccc3)NC(=O)[C@H](C)NC(=O)[C@H](C)NC(=O)[C@H](CC(=O)O)NC(=O)[C@H](CC(=O)O)NC1=O)NC(=O)[C@H](CC(C)(C)C)NC(=O)[C@H](CC(=O)O)NC2=O (stereo partly drawn) [I-1828, Ac-PL3-Asp-Npg-B5-Asp-Asp-Ala-Ala-Phe-Leu-Az-3Thi-BztA-Gln-NH2]

More lines, now with the values behind:

Row | Compound | IC50 [1] [nM] | IC50 [2] [nM]
5 | CC(=O)N1CCC[C@]12CC=CCCCC1(CCCC=CCCCOC(=O)N3CC[C@@](C(=O)N[C@@H](Cc4ccccc4Cl)C(=O)N[C@@H](Cc4csc5ccccc45)C(=O)N[C@@H](CCC(N)=O)C(N)=O)(C3)NC(=O)[C@H](CC(C)C)NC(=O)[C@H](Cc3ccccc3)NC(=O)[C@H](C)NC(=O)[C@H](C)NC(=O)[C@H](CN(CC(=O)O)CC(F)(F)F)NC(=O)[C@H](CC(=O)O)NC1=O)NC(=O)[C@H](CC(C)(C)C)NC(=O)[C@H](CC(=O)O)NC2=O (stereo partly drawn) [I-1833, Ac-PL3-Asp-Npg-B5-Asp-TfeGA-Ala-Ala-Phe-Leu-PyrS2-2C1F-BztA-Gln-NH2] | 26 | 6900
6 | CC(=O)N1CCC[C@]12CC=CCCCC1(CCCC=CCCCOC(=O)N3CC[C@@](C(=O)N[C@@H](Cc4ccsc4)C(=O)N[C@@H](Cc4csc5ccccc45)C(=O)N[C@@H](CCC(N)=O)C(N)=O)(C3)NC(=O)[C@H](CC(C)C)NC(=O)[C@H](Cc3ccccc3)NC(=O)[C@H](C)NC(=O)[C@H](C)NC(=O)[C@H](CCN(CC(=O)O)Cc3ccccc3)NC(=O)[C@H](CC(=O)O)NC1=O)NC(=O)[C@H](CC(C)(C)C)NC(=O)[C@H](CC(=O)O)NC2=O (stereo partly drawn) [I-1834, Ac-PL3-Asp-Npg-B5-Asp-[Bn]GAbu-Ala-Ala-Phe-Leu-PyrS2-3Thi-BztA-Gln-NH2] | 35 | 18800
7 | CCN(CC[C@@H]1NC(=O)[C@H](CC(=O)O)NC(=O)C2(CCCC=CCCCOC(=O)N3CC[C@@](C(=O)N[C@@H](Cc4ccsc4)C(=O)N[C@@H](Cc4csc5ccccc45)C(=O)N[C@@H](CCC(N)=O)C(N)=O)(C3)NC(=O)[C@H](CC(C)C)NC(=O)[C@H](Cc3ccccc3)NC(=O)[C@H](C)NC(=O)[C@H](C)NC1=O)CCCC=CC[C@]1(CCCN1C(C)=O)C(=O)N[C@@H](CC(=O)O)C(=O)N[C@@H](CC(C)(C)C)C(=O)N2)CC(=O)O (stereo partly drawn) [I-1835, Ac-PL3-Asp-Npg-B5-Asp-[Et]GAbu-Ala-Ala-Phe-Leu-PyrS2-3Thi-BztA-Gln-NH2] | 34 | 31900
8 | CC(=O)N1CCC[C@]12CC=CCCCC1(CCCC=CCCCOC(=O)N3CC[C@@](C(=O)N[C@@H](Cc4ccsc4)C(=O)N[C@@H](Cc4csc5ccccc45)C(=O)N[C@@H](CCC(N)=O)C(N)=O)(C3)NC(=O)[C@H](CC(C)C)NC(=O)[C@H](Cc3ccccc3)NC(=O)[C@H](C)NC(=O)[C@H](C)NC(=O)[C@H](CCN(CCCC(F)(F)F)CC(=O)O)NC(=O)[C@H](CC(=O)O)NC1=O)NC(=O)[C@H](CC(C)(C)C)NC(=O)[C@H](CC(=O)O)NC2=O (stereo partly drawn) [I-1837, Ac-PL3-Asp-Npg-B5-Asp-[Tfb]GAbu-Ala-Ala-Phe-Leu-PyrS2-3Thi-BztA-Gln-NH2] | 19 | 18500
9 | CC(=O)N1CCC[C@]12CC=CCCCC1(CCCC=CCCCOC(=O)N3CC[C@@](C(=O)N[C@@H](Cc4ccsc4)C(=O)N[C@@H](Cc4csc5ccccc45)C(=O)N[C@@H](CCC(N)=O)C(N)=O)(C3)NC(=O)[C@H](CC(C)C)NC(=O)[C@H](Cc3ccccc3)NC(=O)[C@H](C)NC(=O)[C@H](C)NC(=O)[C@H](CCN(CC(=O)O)Cc3c(F)c(F)c(F)c(F)c3F)NC(=O)[C@H](CC(=O)O)NC1=O)NC(=O)[C@H](CC(C)(C)C)NC(=O)[C@H](CC(=O)O)NC2=O (stereo partly drawn) [I-1838, Ac-PL3-Asp-Npg-B5-Asp-[Pfbn]GAbu-Ala-Ala-Phe-Leu-PyrS2-3Thi-BztA-Gln-NH2] | 85 | 7900
10 | CC(=O)N1CCC[C@]12CC=CCCCC1(CCCC=CCCCOC(=O)N3CC[C@@](C(=O)N[C@@H](Cc4ccsc4)C(=O)N[C@@H](Cc4csc5ccccc45)C(=O)N[C@@H](CCC(N)=O)C(N)=O)(C3)NC(=O)[C@H](CC(C)C)NC(=O)[C@H](Cc3ccccc3)NC(=O)[C@H](C)NC(=O)[C@H](C)NC(=O)[C@H](CCN(CCC(F)(F)F)CC(=O)O)NC(=O)[C@H](CC(=O)O)NC1=O)NC(=O)[C@H](CC(C)(C)C)NC(=O)[C@H](CC(=O)O)NC2=O (stereo partly drawn) [I-1839, Ac-PL3-Asp-Npg-B5-Asp-[Tfp]GAbu-Ala-Ala-Phe-Leu-PyrS2-3Thi-BztA-Gln-NH2] | 21 | 14600
11 | CC(=O)N(CC[C@@H]1NC(=O)[C@H](CC(=O)O)NC(=O)C2(CCCC=CCCCOC(=O)N3CC[C@@](C(=O)N[C@@H](Cc4ccsc4)C(=O)N[C@@H](Cc4csc5ccccc45)C(=O)N[C@@H](CCC(N)=O)C(N)=O)(C3)NC(=O)[C@H](CC(C)C)NC(=O)[C@H](Cc3ccccc3)NC(=O)[C@H](C)NC(=O)[C@H](C)NC1=O)CCCC=CC[C@]1(CCCN1C(C)=O)C(=O)N[C@@H](CC(=O)O)C(=O)N[C@@H](CC(C)(C)C)C(=O)N2)CC(=O)O (stereo partly drawn) [I-1840, Ac-PL3-Asp-Npg-B5-Asp-[Ac]GAbu-Ala-Ala-Phe-Leu-PyrS2-3Thi-BztA-Gln-NH2] | 14 | 22300
